In patent publication US20120121591A1 (priority 2009, published 2012):

Assays:
Format in all cases: cell-based
[1] = test system: IFN-g secretion from T cells in human whole blood; details: read-out: WB (IFNg) IC50 (nM, Avg)
[2] = test system: IL-2 secretion from T cells in human whole blood; details: read-out: WB (IL-2) IC50 (nM, Avg)
hKv1.3 = hKv1.3 (Homo sapiens, UniProt P22001); assay: cell-based; details: Kv1.3 (IWQ) IC50 (nM, Avg)
Chain of hKv1.3 (P22001 whole entry): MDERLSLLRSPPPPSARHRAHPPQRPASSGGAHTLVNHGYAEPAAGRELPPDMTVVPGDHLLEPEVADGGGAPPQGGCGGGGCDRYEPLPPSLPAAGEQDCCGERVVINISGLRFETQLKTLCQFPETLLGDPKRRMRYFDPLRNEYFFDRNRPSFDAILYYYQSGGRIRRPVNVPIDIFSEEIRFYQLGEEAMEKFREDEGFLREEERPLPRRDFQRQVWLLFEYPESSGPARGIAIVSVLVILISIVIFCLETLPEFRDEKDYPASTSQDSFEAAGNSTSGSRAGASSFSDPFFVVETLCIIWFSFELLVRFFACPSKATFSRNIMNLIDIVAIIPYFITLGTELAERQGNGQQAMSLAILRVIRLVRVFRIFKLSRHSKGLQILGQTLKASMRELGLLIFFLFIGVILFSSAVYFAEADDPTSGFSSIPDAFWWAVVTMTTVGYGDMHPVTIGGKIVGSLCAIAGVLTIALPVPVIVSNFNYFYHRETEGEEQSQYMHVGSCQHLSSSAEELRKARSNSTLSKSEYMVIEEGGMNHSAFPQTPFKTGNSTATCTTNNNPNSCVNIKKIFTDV

In the case of `CC[C@H](C)[C@@H]1NC(=O)[C@@H](NC(=O)[C@H](CO)NC(=O)[C@@H](N)CCCNC(=N)N)CSSC[C@@H](C(=O)O)NC(=O)[C@H]([C@@H](C)O)NC(=O)CNC(=O)[C@@H]2CSSC[C@@H]3NC(=O)[C@H](CCC(N)=O)NC(=O)[C@H](Cc4ccccc4)NC(=O)[C@H](C)NC(=O)[C@H]([C@@H](C)O)NC(=O)[C@H](CSSC[C@H](NC(=O)[C@H](Cc4ccccc4)NC(=O)[C@H](CO)NC(=O)[C@H](CC(C)C)NC(=O)[C@H](CCCNC(=N)N)NC(=O)[C@H](Cc4ccc(O)cc4)NC(=O)[C@H](CCCCN)NC(=O)[C@H](CCSC)NC(=O)[C@H](CO)NC(=O)[C@H](Cc4c[nH]cn4)NC(=O)[C@H](Cc4cccc5ccccc45)NC3=O)C(=O)N[C@@H](CCCNC(=N)N)C(=O)N[C@@H](CCCCN)C(=O)N[C@@H]([C@@H](C)O)C(=O)N2)NC(=O)[C@H](CCCNC(=N)N)NC(=O)[C@H](CO)NC(=O)[C@H](CCCCN)NC(=O)[C@@H]2CCCN2C(=O)[C@H]([C@@H](C)CC)NC(=O)[C@H]([C@@H](C)O)NC(=O)[C@H](CC(=O)O)NC1=O` [[1-Nal18]ShK], the IC50 [1] is reported as 0.375 nM, the IC50 [2] is reported as 0.419 nM and the IC50 (hKv1.3) is reported as 0.471 nM.

Compound `CCCC[C@@H]1NC(=O)[C@H](CO)NC(=O)[C@H](Cc2c[nH]cn2)NC(=O)[C@H](CCC(=O)O)NC(=O)[C@@H]2CSSC[C@@H]3NC(=O)[C@H]([C@@H](C)O)NC(=O)[C@H](CCCNC(=N)N)NC(=O)[C@H](CCCNC(=N)N)NC(=O)[C@H](CSSC[C@H](NC(=O)[C@H](CCCNC(=N)N)NC(=O)[C@H](CO)NC(=O)[C@H](CCCCN)NC(=O)[C@@H]4CCCN4C(=O)[C@H]([C@@H](C)CC)NC(=O)[C@H]([C@@H](C)O)NC(=O)[C@H](CC(=O)O)NC(=O)[C@H]([C@@H](C)CC)NC(=O)[C@@H](NC(=O)[C@H](CO)NC(=O)[C@@H](N)CCCNC(=N)N)CSSC[C@@H](C(N)=O)NC(=O)[C@H]([C@@H](C)O)NC(=O)CNC3=O)C(=O)N[C@@H]([C@@H](C)O)C(=O)N[C@@H](C)C(=O)N[C@@H](Cc3ccccc3)C(=O)N[C@@H](CCCCN)C(=O)N2)NC(=O)[C@H](Cc2ccccc2)NC(=O)[C@H](CO)NC(=O)[C@H](CC(C)C)NC(=O)[C@H](CCCNC(=N)N)NC(=O)[C@H](Cc2ccc(O)cc2)NC(=O)[C@H](CCCCN)NC1=O` [[Glu18, Lys16, Nle21,Arg30]ShK-amide] has an IC50 [1] of 0.969 nM, an IC50 [2] of 1.22 nM and an IC50 (hKv1.3) of 0.226 nM.

Work on `CC[C@H](C)[C@@H]1NC(=O)[C@@H](NC(=O)[C@H](CO)NC(=O)[C@@H](N)CCCNC(=N)N)CSSC[C@@H](C(=O)O)NC(=O)[C@H]([C@@H](C)O)NC(=O)[C@H](C)NC(=O)[C@@H]2CSSC[C@@H]3NC(=O)[C@H](CCC(N)=O)NC(=O)[C@H](Cc4ccccc4)NC(=O)[C@H](C)NC(=O)[C@H]([C@@H](C)O)NC(=O)[C@H](CSSC[C@H](NC(=O)[C@H](Cc4ccccc4)NC(=O)[C@H](CO)NC(=O)[C@H](CC(C)C)NC(=O)[C@H](CCCNC(=N)N)NC(=O)[C@H](Cc4ccc(O)cc4)NC(=O)[C@H](CCCCN)NC(=O)[C@H](CCSC)NC(=O)[C@H](CO)NC(=O)[C@H](Cc4c[nH]cn4)NC(=O)[C@H](CCCCN)NC3=O)C(=O)N[C@@H](CCCNC(=N)N)C(=O)N[C@@H](CCCCN)C(=O)N[C@@H]([C@@H](C)O)C(=O)N2)NC(=O)[C@H](CCCNC(=N)N)NC(=O)[C@H](CO)NC(=O)[C@H](CCCCN)NC(=O)[C@@H]2CCCN2C(=O)[C@H]([C@@H](C)CC)NC(=O)[C@H]([C@@H](C)O)NC(=O)[C@H](CC(=O)O)NC1=O` [[Ala33]ShK] yielded an IC50 [1] of 0.1 nM, an IC50 [2] of 0.049 nM and an IC50 (hKv1.3) of 0.075 nM.

`CCCC[C@@H]1NC(=O)[C@H](CO)NC(=O)[C@H](Cc2c[nH]cn2)NC(=O)[C@H](CCCCN)NC(=O)[C@@H]2CSSC[C@@H]3NC(=O)[C@H]([C@@H](C)O)NC(=O)[C@H](CCCNC(=N)N)NC(=O)[C@H](CCCNC(=N)N)NC(=O)[C@H](CSSC[C@H](NC(=O)[C@H](CCCNC(=N)N)NC(=O)[C@H](CO)NC(=O)[C@H](CCCCN)NC(=O)[C@@H]4CCCN4C(=O)[C@H]([C@@H](C)CC)NC(=O)[C@H]([C@@H](C)O)NC(=O)[C@H](CC(=O)O)NC(=O)[C@H]([C@@H](C)CC)NC(=O)[C@@H](NC(=O)[C@H](CO)NC(=O)[C@@H](N)CCCNC(=N)N)CSSC[C@@H](C(N)=O)NC(=O)[C@H]([C@@H](C)O)NC(=O)CNC3=O)C(=O)N[C@@H]([C@@H](C)O)C(=O)N[C@@H](C)C(=O)N[C@@H](Cc3ccccc3)C(=O)N[C@@H](CCCCN)C(=O)N2)NC(=O)[C@H](Cc2ccccc2)NC(=O)[C@H](CO)NC(=O)[C@H](CC(C)C)NC(=O)[C@H](CCCNC(=N)N)NC(=O)[C@H](Cc2ccc(O)cc2)NC(=O)[C@H](CCCCN)NC1=O` [[Lys16, Nle21,Arg30]ShK-amide] was tested, and the IC50 [1] was 1.9 nM, the IC50 [2] was 0.953 nM and the IC50 (hKv1.3) was 0.423 nM.

In the case of `CC[C@H](C)[C@@H]1NC(=O)[C@@H](NC(=O)[C@H](CO)NC(=O)[C@@H](N)CCCNC(=N)N)CSSC[C@@H](C(=O)O)NC(=O)[C@H]([C@@H](C)O)NC(=O)CNC(=O)[C@@H]2CSSC[C@@H]3NC(=O)[C@H](CCCCN)NC(=O)[C@H](Cc4ccccc4)NC(=O)[C@H](C)NC(=O)[C@H]([C@@H](C)O)NC(=O)[C@H](CSSC[C@H](NC(=O)[C@H](Cc4cccc5ccccc45)NC(=O)[C@H](CO)NC(=O)[C@H](CC(C)C)NC(=O)[C@H](CCCNC(=N)N)NC(=O)[C@H](Cc4ccc(O)cc4)NC(=O)[C@H](CCCCN)NC(=O)[C@H](CCSC)NC(=O)[C@H](CO)NC(=O)[C@H](Cc4c[nH]cn4)NC(=O)[C@H](CCCCN)NC3=O)C(=O)N[C@@H](CCCNC(=N)N)C(=O)N[C@@H](CCCCN)C(=O)N[C@@H]([C@@H](C)O)C(=O)N2)NC(=O)[C@H](CCCNC(=N)N)NC(=O)[C@H](CO)NC(=O)[C@H](CCCCN)NC(=O)[C@@H]2CCCN2C(=O)[C@H]([C@@H](C)CC)NC(=O)[C@H]([C@@H](C)O)NC(=O)[C@H](CC(=O)O)NC1=O` [[Lys16,1-Na127]ShK], the IC50 [1] is reported as 5.68 nM, the IC50 [2] is reported as 0.924 nM and the IC50 (hKv1.3) is reported as 0.113 nM.

Work on `CC[C@H](C)[C@@H]1NC(=O)[C@H]([C@@H](C)O)NC(=O)[C@H](CC(=O)O)NC(=O)[C@H](CCC(=O)O)NC(=O)[C@@H](NC(=O)[C@H](CO)NC(=O)[C@@H](N)CCCNC(=N)N)CSSC[C@@H](C(N)=O)NC(=O)[C@H]([C@@H](C)O)NC(=O)CNC(=O)[C@@H]2CSSC[C@@H]3NC(=O)[C@H](CCCCN)NC(=O)[C@H](Cc4ccccc4)NC(=O)[C@H](C)NC(=O)[C@H]([C@@H](C)O)NC(=O)[C@H](CSSC[C@H](NC(=O)[C@H](Cc4ccccc4)NC(=O)[C@H](CO)NC(=O)[C@H](CC(C)C)NC(=O)[C@H](CCCNC(=N)N)NC(=O)[C@H](Cc4ccc(O)cc4)NC(=O)[C@H](CCCCN)NC(=O)[C@H](CCSC)NC(=O)[C@H](CO)NC(=O)[C@H](Cc4c[nH]cn4)NC(=O)[C@H](CCCCN)NC3=O)C(=O)N[C@@H](CCCNC(=N)N)C(=O)N[C@@H](CCCCN)C(=O)N[C@@H]([C@@H](C)O)C(=O)N2)NC(=O)[C@H](CCCNC(=N)N)NC(=O)[C@H](CO)NC(=O)[C@H](CCCCN)NC(=O)[C@@H]2CCCN2C1=O` [[Glu4,Lys16]ShK-amide] yielded an IC50 [1] of 0.068 nM, an IC50 [2] of 0.071 nM and an IC50 (hKv1.3) of 0.127 nM.

Compound `CCC[C@@H]1NC(=O)[C@H](CO)NC(=O)[C@H](Cc2c[nH]cn2)NC(=O)[C@H](CCCCN)NC(=O)[C@@H]2CSSC[C@@H]3NC(=O)[C@H]([C@@H](C)O)NC(=O)[C@H](CCCCN)NC(=O)[C@H](CCCNC(=N)N)NC(=O)[C@H](CSSC[C@H](NC(=O)[C@H](CCCNC(=N)N)NC(=O)[C@H](CO)NC(=O)[C@H](CCCCN)NC(=O)[C@@H]4CCCN4C(=O)[C@H]([C@@H](C)CC)NC(=O)[C@H]([C@@H](C)O)NC(=O)[C@H](CC(=O)O)NC(=O)[C@H]([C@@H](C)CC)NC(=O)[C@@H](NC(=O)[C@H](CO)NC(=O)[C@@H](N)CCCNC(=N)N)CSSC[C@@H](C(=O)N[C@@H](CCC(=O)O)C(N)=O)NC(=O)[C@H]([C@@H](C)O)NC(=O)CNC3=O)C(=O)N[C@@H]([C@@H](C)O)C(=O)N[C@@H](C)C(=O)N[C@@H](Cc3ccccc3)C(=O)N[C@@H](CCCCN)C(=O)N2)NC(=O)[C@H](Cc2ccccc2)NC(=O)[C@H](CO)NC(=O)[C@H](CC(C)C)NC(=O)[C@H](CCCNC(=N)N)NC(=O)[C@H](Cc2ccc(O)cc2)NC(=O)[C@H](CCCCN)NC1=O` [[Lys16, Nva21]ShK-Glu-amide] has an IC50 [1] of 0.353 nM, an IC50 [2] of 0.218 nM and an IC50 (hKv1.3) of 0.21 nM.

In the case of `CC[C@@H]1NC(=O)[C@H](CO)NC(=O)[C@H](Cc2c[nH]cn2)NC(=O)[C@H](CCCCN)NC(=O)[C@@H]2CSSC[C@@H]3NC(=O)[C@H]([C@@H](C)O)NC(=O)[C@H](CCCCN)NC(=O)[C@H](CCCNC(=N)N)NC(=O)[C@H](CSSC[C@H](NC(=O)[C@H](CCCNC(=N)N)NC(=O)[C@H](CO)NC(=O)[C@H](CCCCN)NC(=O)[C@@H]4CCCN4C(=O)[C@H]([C@@H](C)CC)NC(=O)[C@H]([C@@H](C)O)NC(=O)[C@H](CC(=O)O)NC(=O)[C@H]([C@@H](C)CC)NC(=O)[C@@H](NC(=O)[C@H](CO)NC(=O)[C@@H](N)CCCNC(=N)N)CSSC[C@@H](C(N)=O)NC(=O)[C@H]([C@@H](C)O)NC(=O)CNC3=O)C(=O)N[C@@H]([C@@H](C)O)C(=O)N[C@@H](C)C(=O)N[C@@H](Cc3ccccc3)C(=O)N[C@@H](CCCCN)C(=O)N2)NC(=O)[C@H](Cc2ccccc2)NC(=O)[C@H](CO)NC(=O)[C@H](CC(C)C)NC(=O)[C@H](CCCNC(=N)N)NC(=O)[C@H](Cc2ccc(O)cc2)NC(=O)[C@H](CCCCN)NC1=O` [[Lys16, Abu21]ShK-amide], the IC50 [1] is reported as 1.53 nM, the IC50 [2] is reported as 1.2 nM and the IC50 (hKv1.3) is reported as 0.246 nM.
